Earlier results as cited in patent publication US7749547B2, “Nutritional composition and method for increasing creatine uptake and retention in skeletal muscle, increasing muscle mass and strength, increasing exercise capacity and for aiding recovery following exercise” (priority 2006, dated 2010).

Legend:
[1] = rodents; reduced food intake, enhanced energy expenditure
[2] = supplemented rats
[3] = not given; remark: listed apart in the source
[4] = supplementation
[5] = healthy volunteers

O=C(O)CCCCC1CCSS1 (stereo not drawn) [ALA, Alpha Lipoic Acid]
body weight [1]: profound weight loss
age-related changes in mitochondrial function, accumulated oxidative damage and metabolic rate [2]: improved

[Cr] [Chromium]
lean mass (clinical): increase lean mass
body fat (combined with exercise): reduce body fat
high density lipoproteins (HDL) (human, in vivo): increase high density lipoproteins

CN(CC(=O)O)C(=N)N [Creatine, N-methyl-N-guanyl Glycine]
high-intensity exercise performance ([3]; males and females): improved
strength and fatigue ([3]; supplemental Creatine): improve strength and reduce fatigue
muscle fiber cross sectional area ([3]; supplementation): increases muscle fiber cross sectional area
strength and fat-free mass ([3]; with resistance training, sedentary females and male football players): increased strength and fat-free mass over a placebo
concentration of Creatine in the muscle [4]: increase the concentration of Creatine in the muscle
resynthesis of Phosphocreatine [4]: increase in the resynthesis of Phosphocreatine

Isomalt
bowel function and metabolic function [5]: promote healthy bowel function without impairing metabolic function
